The source made the active and inactive calls. How the calls were made is not given here.
Tested on: rodent carcinogenicity bioassays, tumor incidence
Assay: CCRIS carcinogenicity studies
Procedure, shortened: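 Archive of carcinogenicity, mutagenicity, tumor promotion and tumor inhibition results drawn from journals, NCI reports and other sources, expert-reviewed; covers 1985-2011 and is no longer updated.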

C=COC(C)=O
carcinogen call (Species: MOUSE, Strain/Sex: CRL:CD-1(ICR)BR/FEMALE, Route: INHALATION, Dose: 0, 50, 200, 600 PPM 6 HR/D 5 D/WK FOR 104 WK (STUDY DURATION: 104 WK), Dose: 0, 50, 200, 600 PPM 6 HR/D 5 D/WK FOR 104 WK (STUDY DURATION: 104 WK)): inactive; negative | carcinogen call (Species: MOUSE, Strain/Sex: CRL:CD-1(ICR)BR/MALE, Route: INHALATION, Dose: 0, 50, 200, 600 PPM 6 HR/D 5 D/WK FOR 104 WK (STUDY DURATION: 104 WK), Dose: 0, 50, 200, 600 PPM 6 HR/D 5 D/WK FOR 104 WK (STUDY DURATION: 104 WK)): inactive; negative | carcinogen call (Species: MOUSE, Strain/Sex: SWISS/FEMALE, Route: ORAL, Dose: 0, 1000, 5000 PPM IN DRINKING WATER ADMINISTERED FOR DURATION OF STUDY TO OFFSPRING OF MOTHERS EXPOSED TO THE SAME DOSES, Dose: 0, 1000, 5000 PPM IN DRINKING WATER ADMINISTERED FOR DURATION OF STUDY TO OFFSPRING OF MOTHERS EXPOSED TO THE SAME DOSES, Tumor Site: Type of Lesion: ZYMBAL GLAND: CARCINOMA, ORAL CAVITY: SQUAMOUS CELL CARCINOMA, TONGUE: SQUAMOUS CELL CARCINOMA, ESOPHAGUS: SQUAMOUS CELL, Tumor Site: Type of Lesion: ZYMBAL GLAND: CARCINOMA, ORAL CAVITY: SQUAMOUS CELL CARCINOMA, TONGUE: SQUAMOUS CELL CARCINOMA, ESOPHAGUS: SQUAMOUS CELL): active; positive | carcinogen call (Species: MOUSE, Strain/Sex: SWISS/FEMALE, Route: ORAL, Dose: 0, 1000, 5000 PPM IN DRINKING WATER FOR DURATION OF STUDY (STUDY DURATION:LIFE SPAN), Dose: 0, 1000, 5000 PPM IN DRINKING WATER FOR DURATION OF STUDY (STUDY DURATION:LIFE SPAN), Tumor Site: Type of Lesion: TONGUE: SQUAMOUS CELL CARCINOMA, ESOPHAGUS: SQUAMOUS CELL CARCINOMA, LUNG: ADENOMA OR ADENOCARCINOMA, UTERUS: TUMOR, Tumor Site: Type of Lesion: TONGUE: SQUAMOUS CELL CARCINOMA, ESOPHAGUS: SQUAMOUS CELL CARCINOMA, LUNG: ADENOMA OR ADENOCARCINOMA, UTERUS: TUMOR): active; positive | carcinogen call (Species: MOUSE, Strain/Sex: SWISS/MALE, Route: ORAL, Dose: 0, 1000, 5000 PPM IN DRINKING WATER FOR DURATION OF STUDY (STUDY DURATION: LIFE SPAN), Dose: 0, 1000, 5000 PPM IN DRINKING WATER FOR DURATION OF STUDY (STUDY DURATION: LIFE SPAN)): inactive; negative | carcinogen call (Species: RAT, Strain/Sex: CRL:CD(SD)BR/FEMALE, Route: INHALATION, Dose: 0, 50, 200, 600 PPM 6 HR/D 5 D/WK FOR 104 WK (STUDY DURATION: 104 WK), Dose: 0, 50, 200, 600 PPM 6 HR/D 5 D/WK FOR 104 WK (STUDY DURATION: 104 WK)): inactive; negative | carcinogen call (Species: RAT, Strain/Sex: CRL:CD(SD)BR/FEMALE, Route: ORAL, Dose: 0, 200, 1000, 5000 PPM IN DRINKING WATER FOR 104 WK ADMINISTERED TO OFFSPRING OF RATS ADMINISTERED THE SAME DOSES BEGINN, Dose: 0, 200, 1000, 5000 PPM IN DRINKING WATER FOR 104 WK ADMINISTERED TO OFFSPRING OF RATS ADMINISTERED THE SAME DOSES BEGINN): inactive; negative | carcinogen call (Species: RAT, Strain/Sex: CRL:CD(SD)BR/MALE, Route: INHALATION, Dose: 0, 50, 200, 600 PPM 6 HR/D 5 D/WK FOR 104 WK (STUDY DURATION: 104 WK), Dose: 0, 50, 200, 600 PPM 6 HR/D 5 D/WK FOR 104 WK (STUDY DURATION: 104 WK), Tumor Site: Type of Lesion: NASAL CAVITY: TUMOR): active; positive | carcinogen call (Species: RAT, Strain/Sex: CRL:CD(SD)BR/MALE, Route: ORAL, Dose: 0, 200, 1000, 5000 PPM IN DRINKING WATER FOR 104 WK ADMINISTERED TO OFFSPRING OF RATS ADMINISTERED THE SAME DOSES BEGINN, Dose: 0, 200, 1000, 5000 PPM IN DRINKING WATER FOR 104 WK ADMINISTERED TO OFFSPRING OF RATS ADMINISTERED THE SAME DOSES BEGINN): inactive; negative | carcinogen call (Species: RAT, Strain/Sex: F344/FEMALE, Route: ORAL, Dose: 0, 1000, 2500 MG/L IN DRINKING WATER 5 D/WK FOR 100 WK (STUDY DURATION: 130 WK), Dose: 0, 1000, 2500 MG/L IN DRINKING WATER 5 D/WK FOR 100 WK (STUDY DURATION: 130 WK), Tumor Site: Type of Lesion: UTERUS: CARCINOMA, THYROID: C-CELL ADENOMA, LIVER: NEOPLASTIC NODULE, Tumor Site: Type of Lesion: UTERUS: CARCINOMA, THYROID: C-CELL ADENOMA, LIVER: NEOPLASTIC NODULE): active; positive | carcinogen call (Species: RAT, Strain/Sex: F344/MALE, Route: ORAL, Dose: 0, 1000, 2500 MG/L IN DRINKING WATER 5 D/WK FOR 100 WK (STUDY DURATION: 130 WK), Dose: 0, 1000, 2500 MG/L IN DRINKING WATER 5 D/WK FOR 100 WK (STUDY DURATION: 130 WK)): inactive; negative | carcinogen call (Species: SWISS/MALE, Strain/Sex: ORAL, Route: ORAL, Dose: 0, 1000, 5000 PPM IN DRINKING WATER ADMINISTERED FOR DURATION OF STUDY TO OFFSPRING OF MOTHERS EXPOSED TO THE SAME DOSES, Dose: 0, 1000, 5000 PPM IN DRINKING WATER ADMINISTERED FOR DURATION OF STUDY TO OFFSPRING OF MOTHERS EXPOSED TO THE SAME DOSES, Tumor Site: Type of Lesion: ZYMBAL GLAND: CARCINOMA, ORAL CAVITY: SQUAMOUS CELL CARCINOMA, TONGUE: SQUAMOUS CELL CARCINOMA, ESOPHAGUS: SQUAMOUS CELL, Tumor Site: Type of Lesion: ZYMBAL GLAND: CARCINOMA, ORAL CAVITY: SQUAMOUS CELL CARCINOMA, TONGUE: SQUAMOUS CELL CARCINOMA, ESOPHAGUS: SQUAMOUS CELL): active; positive

CC(=O)N(O)c1ccc2ccc3cccc4ccc1c2c34
carcinogen call (Species: RAT, Strain/Sex: STRAIN-CD/FEMALE, Route: INTRAPERITONEAL, Dose: 0, 67 UMOL/KG BW IN DMSO 3/WK FOR 4 WK (STUDY DURATION: 61 WK)): inactive; negative | carcinogen call (Species: RAT, Strain/Sex: STRAIN-CD/FEMALE, Route: INTRAPERITONEAL, Dose: 0, 67 UMOL/KG/BW IN 25 UMOL/ML DMSO 3/WK FOR 4 WK (TOTAL DOSE: 0; 119 UMOL) ADMINISTERED TO WEANLING RATS (STUDY DURATIO, Dose: 0, 67 UMOL/KG/BW IN 25 UMOL/ML DMSO 3/WK FOR 4 WK (TOTAL DOSE: 0; 119 UMOL) ADMINISTERED TO WEANLING RATS (STUDY DURATIO): inactive; negative

CCNC(=O)N(C=O)CCN(C)C
carcinogen call (Species: RAT, Strain/Sex: F344/FEMALE, Route: INTRAGASTRIC, Dose: 0, 25 MG/ML CORN OIL/ETHYL ACETATE (2:1) SOLUTION ADMINISTERED AS 0.2 ML 2/WK FOR 37 WK (STUDY DURATION: 102 WK), Tumor Site: Type of Lesion: NASAL CAVITY: ADENOMA): active; positive | carcinogen call (Species: RAT, Strain/Sex: F344/MALE, Route: INTRAGASTRIC, Dose: 0, 25 MG/ML CORN OIL/ETHYL ACETATE (2:1) SOLUTION ADMINISTERED AS 0.2 ML 2/WK FOR 37 WK (STUDY DURATION: 102 WK)): inactive; negative

C[C@]12C/C(=C/O)C(=O)C[C@@H]1CC[C@@H]1[C@@H]2CC[C@@]2(C)[C@H]1CC[C@]2(C)O
carcinogen call (Species: HUMAN, Route: ORAL, Tumor Site: Type of Lesion: LIVER): active; positive | carcinogen call (Species: RAT, Strain/Sex: F344/N/FEMALE, Route: GAVAGE, Dose: 0, 3, 30, 100 MG/KG IN 0.5% METHYLCELLULOSE FOR 104 WK (STUDY DURATION: 104 WK), Dose: 0, 3, 30, 100 MG/KG IN 0.5% METHYLCELLULOSE FOR 104 WK (STUDY DURATION: 104 WK), Tumor Site: Type of Lesion: LIVER: HEPATOCELLULAR ADENOMA, HEPATOCELLULAR ADENOMA OR CARCINOMA, LUNG: ALVEOLAR/BRONCHIOLAR ADENOMA, ALVEOLAR/BRONCHI): active; positive | carcinogen call (Species: RAT, Strain/Sex: F344/N/MALE, Route: GAVAGE, Dose: 0, 3, 30, 150 MG/KG IN 0.5% METHYLCELLULOSE FOR 104 WK (STUDY DURATION: 104 WK), Dose: 0, 3, 30, 150 MG/KG IN 0.5% METHYLCELLULOSE FOR 104 WK (STUDY DURATION: 104 WK), Tumor Site: Type of Lesion: SKIN (SUBCUTANEOUS TISSUE): FIBROMA, FIBROMA OR FIBROSARCOMA, ADRENAL GLAND: BENIGN PHEOCHROMOCYTOMA, BENIGN PHEOCHROMOC): equivocal

Reference: PubChem BioAssay AID1259411 (Chemical Carcinogenesis Research Information System (CCRIS), 2018)
